Laboratory results taken from patent US6750223B2, “4-Anilino[2,3-b]quinoline derivatives, their preparation processes and pharmaceutical compositions comprising the same” (Kaohsiung Medical University, priority 2002, dated 2004).
Read-outs that look alike come from different tables or passages of the source.

Assays:
[1] = system: prostate cancer (PC-3 and DU-145); test: NCI in vitro anticancer screen, prostate cancer subpanel; format: cell-based, human
[2] = system: breast cancer (MCF7, MCF7/ADR-RES, MDA-MB-231/ATCC, HS 578T, MDA-MB-435, MDA-N, and T-47D); test: NCI in vitro anticancer screen, breast cancer subpanel; format: cell-based, human; settings: read-out: GI50 Breast cancer
[3] = system: colon cancer (COLO 205, HCC-2998, HCT-116, HCT-15, HT29, KM12, and SW-620); test: NCI in vitro anticancer screen, colon cancer subpanel; format: cell-based, human; settings: read-out: GI50 Colon cancer
[4] = system: melanoma (LOX IMVI, MALME-3M, M14, SK-MEL-2, SK-MEL-28, SK-MEL-5, UACC-62, and UACC-257); test: NCI in vitro anticancer screen, melanoma subpanel; format: cell-based, human; settings: read-out: GI50 Melanoma
[5] = system: renal cancer (786-0, A498, ACHN, CAKI-1, RXF 393, SN12C, TK-10, and UO-31); test: NCI in vitro anticancer screen, renal cancer subpanel; format: cell-based, human; settings: read-out: GI50 Renal cancer
[6] = system: non-small cell lung cancer (A549/ATCC, EKVX, HOP-62, HOP-92, NCI-H226, NCI-H23, NCI-H322M, NCI-H460, and NCI-H522); test: NCI in vitro anticancer screen, non-small-cell lung cancer subpanel; format: cell-based, human
[7] = system: NCI's full panel of 60 human cancer cell lines; test: NCI in vitro anticancer screen, full panel mean; format: cell-based
[8] = system: leukemia (CCRF-CEM, HL-60 (TB), K-562, MOLT-4, RPMI-8226, and SR); test: NCI in vitro anticancer screen, leukemia subpanel; format: cell-based; settings: read-out: GI50 Leukemia
[9] = system: CNS cancer (SF-268, SF-295, SF-539, SNB-19, SNB-75, and U251); test: NCI in vitro anticancer screen, CNS cancer subpanel; format: cell-based, human; settings: read-out: GI50 CNS cancer
[10] = system: ovarian cancer (IGROV1, OVCAR-3, OVCAR-4, OVCAR-5, OVCAR-8, and SK-OV-3); test: NCI in vitro anticancer screen, ovarian cancer subpanel; format: cell-based, human; settings: read-out: GI50 Ovarian cancer
NCI-H23 = test: NCI in vitro anticancer screen, NCI-H23; format: cell-based, human; settings: non-small-cell lung cancer cell line
HOP-62 = test: NCI in vitro anticancer screen, HOP-62; format: cell-based, human
EKVX = test: NCI in vitro anticancer screen, EKVX; format: cell-based, human; settings: non-small-cell lung cancer cell line
NCI-H322M = test: NCI in vitro anticancer screen, NCI-H322M; format: cell-based, human; settings: non-small-cell lung cancer cell line
A549/ATCC = test: NCI in vitro anticancer screen, A549/ATCC; format: cell-based, human; settings: non-small-cell lung cancer cell line
NCI-H522 = test: NCI in vitro anticancer screen, NCI-H522; format: cell-based, human
HOP-92 = test: NCI in vitro anticancer screen, HOP-92; format: cell-based, human
NCI-H460 = test: NCI in vitro anticancer screen, NCI-H460; format: cell-based, human
NCI-H226 = test: NCI in vitro anticancer screen, NCI-H226; format: cell-based, human; settings: non-small-cell lung cancer cell line
[11] = Homo sapiens, DU-145, subpanel value, read-out: GI50 Prostate cancer
[12] = Homo sapiens, subpanel value, read-out: GI50 Non-small-cell lung cancer
[13] = Homo sapiens, mean values over all cell lines tested, read-out: GI50 MG_MID
[14] = Homo sapiens, subpanel value, concentration causing 50% cell growth inhibition
[15] = mean over all cell lines, read-out: mean GI50
[16] = non-small-cell lung cancer cell line

C=C1CC(C)(c2ccc(Nc3c4ccccc4nc4occc34)cc2)OC1=O (centres unmarked) [Compound 6, 5-[4-(Furo[2,3-b]quinolin-4-ylamino)phenyl]-2,3,4,5-tetrahydro-5-methyl-3-methylidenefuran-2-one]
GI50 [1, 11]: 1320 nM
GI50 ([2]; Homo sapiens, subpanel value): 3270 nM
GI50 ([3]; Homo sapiens, subpanel value): 1560 nM
GI50 ([4]; Homo sapiens, subpanel value): 1710 nM
GI50 ([5]; Homo sapiens, subpanel value): 4760 nM
GI50 [6, 12]: 5590 nM
GI50 ([7]; Homo sapiens, mean over all cell lines, read-out: mean GI50): 1770 nM
GI50 [7, 13]: 1770 nM
GI50 [8, 14]: 900 nM
GI50 ([9]; Homo sapiens, subpanel value): 5300 nM
GI50 ([10]; Homo sapiens, subpanel value): 1920 nM

Nc1cc(CO)cc(Nc2c3ccccc3nc3occc23)c1 [Compound 4, 3-(Furo[2,3-b]quinolin-4-ylamino)-5-(hydroxymethyl)aniline]
GI50 [1, 11]: 53600 nM
GI50 ([2]; Homo sapiens, subpanel value): 23800 nM
melting point: 236 to 237 °C
GI50 ([3]; Homo sapiens, subpanel value): 25200 nM
GI50 ([4]; Homo sapiens, subpanel value): 38600 nM
GI50 ([5]; Homo sapiens, subpanel value): 37700 nM
GI50 [6, 12]: 40900 nM
GI50 [7, 13]: 31100 nM
GI50 [8, 14]: 23000 nM
GI50 ([9]; Homo sapiens, subpanel value): 45900 nM
GI50 ([10]; Homo sapiens, subpanel value): 47700 nM

CO/N=C(\C)c1ccc(Nc2c3ccccc3nc3occc23)cc1 [Compound 8b, (E)-1-[4-(Furo[2,3-b]quinolin-4-ylamino)phenyl]ethanone O-Methyloxime]
GI50 (NCI-H23; Homo sapiens, NCI-H23): 570 nM
GI50 [1, 11]: 580 nM
GI50 ([2]; Homo sapiens, subpanel value): 410 nM
melting point: 167 to 168 °C
GI50 (HOP-62; Homo sapiens, HOP-62, non-small-cell lung cancer cell line): 350 nM
GI50 ([3]; Homo sapiens, subpanel value): 320 nM
GI50 (EKVX; Homo sapiens, EKVX): 3780 nM
GI50 ([4]; Homo sapiens, subpanel value): 1270 nM
GI50 ([5]; Homo sapiens, subpanel value): 1630 nM
GI50 (NCI-H322M; Homo sapiens, NCI-H322M): 1220 nM
GI50 [6, 12]: 2580 nM
GI50 (A549/ATCC; Homo sapiens, A549): 720 nM
GI50 [7, 13]: 480 nM
GI50 [7, 15]: 480 nM
GI50 (NCI-H522; Homo sapiens, NCI-H522): < 10 nM
GI50 (NCI-H522; [16]): < 10 nM
GI50 (HOP-92; Homo sapiens, HOP-92, non-small-cell lung cancer cell line): 12100 nM
GI50 (NCI-H460; Homo sapiens, NCI-H460, non-small-cell lung cancer cell line): 560 nM
GI50 (NCI-H226; Homo sapiens, NCI-H226): 3880 nM
GI50 [8, 14]: 360 nM
GI50 ([9]; Homo sapiens, subpanel value): 570 nM
GI50 ([10]; Homo sapiens, subpanel value): 660 nM

COc1cc(NS(C)(=O)=O)ccc1Nc1c2ccccc2nc2ccccc12 [m-AMSA, 4′-(9-acridinylamino)methanesulfonyl-m-anisidine, reference compound]
GI50 [1, 11]: 160 nM
GI50 ([2]; Homo sapiens, subpanel value): 580 nM
GI50 ([3]; Homo sapiens, subpanel value): 1070 nM
GI50 ([4]; Homo sapiens, subpanel value): 580 nM
GI50 ([5]; Homo sapiens, subpanel value): 870 nM
GI50 [6, 12]: 350 nM
GI50 [7, 13]: 440 nM
GI50 [7, 15]: 440 nM
GI50 [8, 14]: 100 nM
GI50 ([9]; Homo sapiens, subpanel value): 420 nM
GI50 ([10]; Homo sapiens, subpanel value): 1050 nM

CC(=O)c1ccc(Nc2c3ccccc3nc3occc23)cc1 [Compound 5, 1-[4-(Furo[2,3-b]quinolin-4-ylamino)phenyl]ethanone]
GI50 (NCI-H23; Homo sapiens, NCI-H23): 37 nM
GI50 [1, 11]: 21 nM
GI50 ([2]; Homo sapiens, subpanel value): 17 nM
melting point: 220 to 221 °C
GI50 (HOP-62; Homo sapiens, HOP-62): < 10 nM
GI50 (HOP-62; [16]): < 10 nM
GI50 ([3]; Homo sapiens, subpanel value): 11 nM
GI50 ([4]; Homo sapiens, subpanel value): 18 nM
GI50 ([5]; Homo sapiens, subpanel value): 35 nM
GI50 (NCI-H322M; Homo sapiens, NCI-H322M): 680 nM
GI50 ([6]; Homo sapiens, read-out: average GI50 non-small-cell lung cancer): 1750 nM
GI50 [6, 12]: 1750 nM
GI50 (A549/ATCC; Homo sapiens, A549): 570 nM
GI50 ([7]; Homo sapiens, all types of cancer cells tested except non-small-cell lung cancer, read-out: mean GI50 in each type of cancer cells): < 40 nM
GI50 [7, 13]: 25 nM
GI50 [7, 15]: 25 nM
GI50 (NCI-H522; Homo sapiens, NCI-H522): < 10 nM
GI50 (NCI-H522; [16]): < 10 nM
GI50 (HOP-92; Homo sapiens, HOP-92): 12400 nM
GI50 (NCI-H460; Homo sapiens, NCI-H460): 10 nM
GI50 (NCI-H226; Homo sapiens, NCI-H226): 310 nM
GI50 [8, 14]: < 10 nM
GI50 ([9]; Homo sapiens, subpanel value): 16 nM
GI50 ([10]; Homo sapiens, subpanel value): 39 nM

C/C(=N\O)c1cccc(Nc2c3ccccc3nc3occc23)c1 [Compound 9a, (E)-1-[3-(Furo[2,3-b]quinolin-4-ylamino)phenyl]ethanone oxime]
GI50 [1, 11]: 16200 nM
GI50 ([2]; Homo sapiens, subpanel value): 3620 nM
melting point: 248 to 249 °C
GI50 ([3]; Homo sapiens, subpanel value): 5350 nM
GI50 ([4]; Homo sapiens, subpanel value): 4810 nM
GI50 ([5]; Homo sapiens, subpanel value): 9900 nM
GI50 [6, 12]: 8010 nM
GI50 [7, 13]: 5600 nM
GI50 [7, 15]: 5600 nM
GI50 [8, 14]: 3640 nM
GI50 ([9]; Homo sapiens, subpanel value): 10500 nM
GI50 ([10]; Homo sapiens, subpanel value): 13600 nM

C/C(=N\O)c1ccc(Nc2c3ccccc3nc3occc23)cc1 [Compound 8a, (E)-1-[4-(Furo[2.3-b]quinolin-4-ylamino)phenyl]ethanone oxime]
GI50 (NCI-H23): 380 nM
GI50 ([1]; subpanel value, read-out: GI50 Prostate cancer): 530 nM
GI50 ([2]; subpanel value): 420 nM
GI50 (HOP-62; [16]): 180 nM
GI50 ([3]; subpanel value): 170 nM
GI50 (EKVX): 4030 nM
GI50 ([4]; subpanel value): 950 nM
GI50 ([5]; subpanel value): 2680 nM
GI50 (NCI-H322M): 12200 nM
GI50 ([6]; subpanel value, read-out: GI50 Non-small-cell lung cancer): 4440 nM
GI50 (A549/ATCC): 450 nM
GI50 [7, 15]: 350 nM
GI50 ([7]; mean values over all cell lines tested, read-out: GI50 MG_MID): 350 nM
GI50 (NCI-H522): 74 nM
GI50 (NCI-H522; [16]): 74 nM
GI50 (HOP-92; [16]): 10900 nM
GI50 (NCI-H460; [16]): 210 nM
GI50 (NCI-H226): 11500 nM
GI50 ([8]; subpanel value, concentration causing 50% cell growth inhibition): 140 nM
GI50 ([9]; subpanel value): 350 nM
GI50 ([10]; subpanel value): 530 nM

CO/N=C(\C)c1cccc(Nc2c3ccccc3nc3occc23)c1 [Compound 9b, (E)-1-[3-(Furo[2,3-b]quinolin-4-ylamino)phenyl]ethanone O-Methyloxime]
GI50 [1, 11]: 17800 nM
GI50 ([2]; Homo sapiens, subpanel value): 8680 nM
GI50 ([3]; Homo sapiens, subpanel value): 6670 nM
GI50 ([4]; Homo sapiens, subpanel value): 8500 nM
GI50 ([5]; Homo sapiens, subpanel value): 12600 nM
GI50 [6, 12]: 10900 nM
GI50 [7, 13]: 7560 nM
GI50 [7, 15]: 7560 nM
GI50 [8, 14]: 4230 nM
GI50 ([9]; Homo sapiens, subpanel value): 11500 nM
GI50 ([10]; Homo sapiens, subpanel value): 11600 nM

CC(=O)c1ccc(Nc2c3ccccc3nc3occ(Cl)c23)cc1 [Compound 13, 1-[4-(3-Chlorofuro[2,3-b]quinolin-4-ylamino)phenyl]ethanone]
melting point: 245 to 247 °C

COc1cccc2c1C(=O)c1c(O)c3c(c(O)c1C2=O)C[C@@](O)(C(C)=O)C[C@@H]3O[C@H]1C[C@H](N)[C@H](O)[C@H](C)O1 [DAM, Daunomycin, reference compound]
GI50 ([1]; Homo sapiens, DU-145, read-out: GI50 Prostate cancer): 32 nM
GI50 ([2]; Homo sapiens): 110 nM
GI50 ([3]; Homo sapiens): 83 nM
GI50 ([4]; Homo sapiens): 47 nM
GI50 ([5]; Homo sapiens): 48 nM
GI50 ([6]; Homo sapiens, read-out: GI50 Non-small-cell lung cancer): 43 nM
GI50 ([7]; Homo sapiens, read-out: GI50 MG_MID): 44 nM
GI50 ([8]; Homo sapiens): < 10 nM
GI50 ([9]; Homo sapiens): 20 nM
GI50 ([10]; Homo sapiens): 62 nM

CC(=O)c1cccc(Nc2c3ccccc3nc3occc23)c1 [Compound 7, 1-[3-(Furo[2,3-b]quinolin-4-ylamino)phenyl]ethanone]
GI50 [1, 11]: 12000 nM
GI50 ([2]; Homo sapiens, subpanel value): 5320 nM
melting point: 158 to 159 °C
GI50 ([3]; Homo sapiens, subpanel value): 5110 nM
GI50 ([4]; Homo sapiens, subpanel value): 6090 nM
GI50 ([5]; Homo sapiens, subpanel value): 10600 nM
GI50 [6, 12]: 14500 nM
GI50 [7, 13]: 5270 nM
GI50 [7, 15]: 5270 nM
GI50 [8, 14]: 3220 nM
GI50 ([9]; Homo sapiens, subpanel value): 7630 nM
GI50 ([10]; Homo sapiens, subpanel value): 11300 nM
